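In this assay, cells in 96-well plates receive the compound at five concentrations for 48 hours. Endpoints are linearly interpolated between the surrounding concentrations. Abbreviation: GI50, concentration required for 50% inhibition of growth. TGI denotes the concentration required for complete inhibition of growth.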
Experiments:
Assay in all cases: NCI tumour cell line growth inhibition, 48 h
[1] = tested on: OVCAR-8 ovarian
[2] = tested on: NCI-H522 lung
[3] = tested on: NCI-H226 lung
[4] = tested on: EKVX NSCLC
[5] = tested on: COLO 205 colon
[6] = tested on: CAKI-1 renal
[7] = tested on: HL-60(TB) leukemia
[8] = tested on: KM12 colon
[9] = tested on: K-562 leukemia
[10] = tested on: SF-295 CNS

SMILES	TGI [1]	TGI [2]	TGI [3]	TGI [4]	TGI [5]	TGI [6]	TGI [7]	TGI [8]	TGI [9]	TGI [10]	GI50 [1]	GI50 [2]	GI50 [3]	GI50 [4]	GI50 [5]	GI50 [6]	GI50 [7]	GI50 [8]	GI50 [9]	GI50 [10]
CCOc1ccccc1NC(=O)C(=O)CC(=O)C1=C(C)Nc2ccccc2S1	> 100 µM	> 100 µM	> 100 µM	> 100 µM	> 100 µM	> 100 µM	> 36.2 µM	> 100 µM	> 76.4 µM	> 100 µM	–	–	–	–	–	–	–	–	–	–
O=c1[nH]c(=S)[nH]c2c1sc(=S)n2-c1ccccc1	> 100 µM	> 100 µM	> 100 µM	> 100 µM	> 100 µM	> 100 µM	> 100 µM	> 100 µM	> 100 µM	> 100 µM	–	–	–	–	–	–	–	–	–	–
N#Cc1ccc(Oc2nccc(-c3c(-c4ccc(F)cc4)ncn3C3CCNCC3)n2)cc1	> 25 µM	> 15.6 µM	> 25 µM	> 25 µM	> 25 µM	> 25 µM	> 25 µM	> 25 µM	12.4 µM	> 25 µM	> 16600 nM	> 11900 nM	> 25000 nM	> 25 µM	> 25000 nM	> 25000 nM	> 25000 nM	18200 nM	5010 nM	16.6 µM
O=C(N[C@H](c1ccc(Cl)c(Cl)c1)C1CNC1)c1ccc2cnccc2c1	23 µM	26.5 µM	19.7 µM	16.4 µM	11.5 µM	10.7 µM	12.8 µM	11.9 µM	14 µM	14.5 µM	10400 nM	12900 nM	4300 nM	3.15 µM	2960 nM	1840 nM	2830 nM	2340 nM	3370 nM	3.04 µM
CCC(=O)C1=C(OC(C)=O)C2Cc3c(n(C)c4ccccc34)C(C1)N2C (stereo unspecified)	41.6 µM	30 µM	> 100 µM	> 100 µM	> 100 µM	> 100 µM	53 µM	> 100 µM	> 100 µM	> 100 µM	–	–	–	–	–	–	–	–	–	–
Nc1nc(N)c2cc(CNc3ccc(Cl)c(Cl)c3)ccc2n1	1.75 µM	2.01 µM	3.21 µM	2.18 µM	2.33 µM	2.54 µM	2 µM	2.13 µM	1.45 µM	1.69 µM	513 nM	567 nM	1580 nM	0.742 µM	1110 nM	1220 nM	357 nM	866 nM	58.8 nM	0.419 µM
CCCc1cc(=O)oc2c(C(=O)CC(C)C)c(O)c(CC=C(C)C)c(O)c12	> 50 µM	> 50 µM	38.5 µM	> 50 µM	21.5 µM	33.9 µM	22.9 µM	> 50 µM	> 50 µM	31.3 µM	12000 nM	8170 nM	11800 nM	9.22 µM	10600 nM	8380 nM	7010 nM	11000 nM	4130 nM	7.81 µM
Cc1ccc(-n2c3c(c4c(CN5CCCCC5)c(O)ccc42)CCc2ccccc2C3=O)cc1	> 100 µM	> 100 µM	> 100 µM	> 100 µM	> 100 µM	> 100 µM	> 100 µM	> 100 µM	> 100 µM	> 100 µM	46000 nM	> 100000 nM	> 100000 nM	> 100 µM	> 100000 nM	> 100000 nM	477 nM	> 100000 nM	32200 nM	35.8 µM
CC(=O)OC1(C#N)CC2OC1C1C2N1C(=O)c1ccccc1 (stereo unspecified)	> 100 µM	> 100 µM	> 100 µM	> 100 µM	> 100 µM	> 100 µM	> 100 µM	–	> 100 µM	–	–	–	–	–	–	–	–	–	–	–
CN(C)CC(C(=O)c1ccccc1)c1ccccc1 (stereo unspecified)	6.56 µM	2.79 µM	7.79 µM	27.1 µM	3.33 µM	2.67 µM	8.22 µM	3.83 µM	10.1 µM	18.2 µM	1990 nM	1300 nM	2420 nM	10.2 µM	1770 nM	966 nM	3170 nM	1740 nM	483 nM	4.52 µM
CCSC1(SCC)CCN(C=NC(C)(C)C)C1	> 100 µM	> 100 µM	> 100 µM	> 100 µM	> 100 µM	> 100 µM	> 100 µM	> 100 µM	> 100 µM	> 100 µM	–	–	–	–	–	–	–	–	–	–
Cc1ccc(/C=C(\C#N)n2nnc3cc(Cl)c(Cl)cc32)cc1	> 100 µM	14.9 µM	> 100 µM	> 100 µM	7.16 µM	13.8 µM	6.94 µM	> 100 µM	33.2 µM	–	2870 nM	2720 nM	2880 nM	3.48 µM	2620 nM	1090 nM	1780 nM	3030 nM	892 nM	–
COc1cc(CNC(=O)/C=C/C=C/c2ccc3c(c2)OCO3)ccc1OCc1cn(-c2ccc(Cl)c(Cl)c2)nn1	8.15 µM	5.11 µM	4.31 µM	13.4 µM	–	3.57 µM	5.73 µM	7.25 µM	3.78 µM	4.19 µM	2350 nM	1810 nM	1740 nM	2.95 µM	–	1620 nM	2080 nM	2410 nM	509 nM	1.85 µM
CCOC(=O)CC(=O)ON(C)C(=O)Cc1ccccc1	> 100 µM	> 100 µM	> 100 µM	> 100 µM	> 100 µM	> 100 µM	> 100 µM	> 100 µM	–	> 100 µM	–	–	–	–	–	–	–	–	–	–
Cc1ccc2nc3c(Cl)cc(=O)cc-3sc2c1	43.4 µM	39 µM	79.1 µM	39.1 µM	36.3 µM	71.1 µM	20.5 µM	–	56.1 µM	63.2 µM	–	–	–	–	–	–	–	–	–	–
COc1cc2cc3c4c(cc(OC)c(OC)c4c2cc1OC)CCN3C(=O)CCCC(=O)O	–	> 100 µM	> 100 µM	> 100 µM	> 100 µM	> 100 µM	> 100 µM	> 100 µM	> 100 µM	> 100 µM	–	–	–	–	–	–	–	–	–	–

— PubChem BioAssay (NCI)
